Experimental data reported in patent US20130165440A1, “JAK1 Inhibitors” (EXELIXIS, INC., priority 2010, published 2013).

Each molecule was assayed against T1, recombinant JAK1 enzyme (Homo sapiens, UniProt P23458) (assay: JAK1 Kinase Assay (luciferase-luciferin-coupled chemiluminescence, ATP consumption)). Conditions: 8 nM JAK1 (V866-K1155), 30 μM IRS-1 peptide (Y608), 2 μM ATP, 2 hours ambient temperature, KinaseGlo; read-out: JAK1 IRS-1tide Chemilum (IC50).
T1 construct: 8 nM of recombinant JAK1 enzyme (Insect expressed: V866-K1155); host or cells: insect cells
Type: biochemical
Procedure: JAK1 Kinase Assay Used to Test Compounds
JAK1 Kinase activity was measured as the percent of ATP consumed following the kinase reaction using luciferase-luciferin-coupled chemiluminescence. The reaction was conducted in white medium binding 384-well microtiter plates. The kinase reaction were initiated by combining test compounds, 8 nM of recombinant JAK1 enzyme (Insect expressed: V866-K1155), 30 μM of IRS-1 peptide (Y608) and 2 μM ATP in buffer containing 20 mM Hepes (pH 7.5), 10 mM MgCl2, 0.01% Brij, 5% glycerol and 1 mM DTT in a 20 μL volume. The reaction mixture was incubated at ambient temperature for 2 hours. Following the kinase reaction, a 20 μL aliquot of KinaseGlo was added to stop the reaction and measure remaining ATP via detection of chemiluminescence using the Envison reader. Total ATP consumption was limited to 25-60%.

T1 sequence (P23458 865-1154 limits assumed): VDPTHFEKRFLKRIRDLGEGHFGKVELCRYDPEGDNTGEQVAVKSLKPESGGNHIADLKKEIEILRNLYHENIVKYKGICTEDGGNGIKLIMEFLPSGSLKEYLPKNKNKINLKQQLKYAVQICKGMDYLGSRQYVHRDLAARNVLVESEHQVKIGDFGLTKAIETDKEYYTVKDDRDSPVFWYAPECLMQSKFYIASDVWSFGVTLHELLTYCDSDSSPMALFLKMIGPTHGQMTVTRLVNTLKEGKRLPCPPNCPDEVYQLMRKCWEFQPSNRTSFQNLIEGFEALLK

| IC50 [nM] | Structure (SMILES) |
| --- | --- |
| 150 to 500 | FC(F)(F)c1cc(Nc2nnc(-c3ccc(-c4cc[nH]n4)cc3)c3ccccc23)cc(C(F)(F)F)c1 [Compound 52, N-[3,5-bis(trifluoromethyl)phenyl]-4-[4-(1H-pyrazol-3-yl)phenyl]phthalazin-1-amine] |
| ≤ 150 | CCc1cc(Nc2nnc(-c3ccc(C(=O)OC)cc3)c3ccccc23)cc(C(F)(F)F)c1 [Compound 19, methyl 4-(4-{[3-ethyl-5-(trifluoromethyl)phenyl]amino}phthalazin-1-yl)benzoate] |
| ≤ 150 | O=c1[nH]ccn1-c1ccc(-c2nnc(Nc3cc(C(F)(F)F)cc(C(F)(F)F)c3)c3ccccc23)cc1 [Compound 5, 1-[4-(4-{[3,5-bis(trifluoromethyl)phenyl]amino}phthalazin-1-yl)phenyl]-1,3-dihydro-2H-imidazol-2-one] |
| 500 to 1000 | O=C(NCCN1CCOCC1)c1ccc(-c2nnc(Nc3cc(C(F)(F)F)cc(C(F)(F)F)c3)c3ccccc23)cc1 [Compound 49, 4-(4-{[3,5-bis(trifluoromethyl)phenyl]amino}phthalazin-1-yl)-N-(2-morpholin-4-ylethyl)benzamide] |
| 500 to 1000 | Cc1cc(-c2ccc(-c3nnc(Nc4cc(C(F)(F)F)cc(C(F)(F)F)c4)c4ccccc34)cc2)n[nH]1 [Compound 61, N-[3,5-bis(trifluoromethyl)phenyl]-4-[4-(5-methyl-1H-pyrazol-3-yl)phenyl]phthalazin-1-amine] |
| ≤ 150 | FC(F)(F)c1cc(Nc2nnc(-c3ccc4cn[nH]c4c3)c3ccccc23)cc(C(F)(F)F)c1 [Compound 33, N-[3,5-bis(trifluoromethyl)phenyl]-4-(1H-indazol-6-yl)phthalazin-1-amine] |
| 2000 to 30000 | O=C1CCCN1c1ccc(-c2nnc(Nc3cc(C(F)(F)F)cc(C(F)(F)F)c3)c3ccccc23)cc1 [Compound 48, 1-[4-(4-{[3,5-bis(trifluoromethyl)phenyl]amino}phthalazin-1-yl)phenyl]pyrrolidin-2-one] |
| ≤ 150 | O=C1NCCN1c1ccc(-c2nnc(Nc3cc(C(F)(F)F)cc(C(F)(F)F)c3)c3ccccc23)cc1 [Compound 23, 1-[4-(4-{[3,5-bis(trifluoromethyl)phenyl]amino}phthalazin-1-yl)phenyl]imidazolidin-2-one] |
| 150 to 500 | COC(=O)c1ccc(-c2nnc(Nc3cc(F)cc(C(F)(F)F)c3)c3ccccc23)cc1 [Compound 35, methyl 4-(4-{[3-fluoro-5-(trifluoromethyl)phenyl]amino}phthalazin-1-yl)benzoate] |
| 150 to 500 | CNC(=O)c1ccc(-c2nnc(Nc3cc(C(F)(F)F)cc(C(F)(F)F)c3)c3ccccc23)cc1 [Compound 55, 4-(4-{[3,5-bis(trifluoromethyl)phenyl]amino}phthalazin-1-yl)-N-methylbenzamide] |
| 2000 to 30000 | COC(=O)c1ccc(-c2nnc(Nc3cc(C(F)(F)F)cc(C(F)(F)F)c3)c3ccccc23)s1 [Compound 17, methyl 5-(4-{[3,5-bis(trifluoromethyl)phenyl]amino}phthalazin-1-yl)thiophene-2-carboxylate] |
| 2000 to 30000 | CC(=O)c1cccc(-c2nnc(Nc3cc(C(F)(F)F)cc(C(F)(F)F)c3)c3ccccc23)c1 [Compound 50, 1-[3-(4-{[3,5-bis(trifluoromethyl)phenyl]amino}phthalazin-1-yl)phenyl]ethanone] |

The next lines start with the molecule.

| Structure (SMILES) | IC50 [nM] |
| --- | --- |
| COC(=O)c1ccc(-c2nnc(Nc3cccc(C(F)(F)F)c3)c3ccccc23)cc1 [Compound 58, methyl 4-(4-{[3-(trifluoromethyl)phenyl]amino}phthalazin-1-yl)benzoate] | ≤ 150 |
| O=C1OCc2cc(-c3nnc(Nc4cc(C(F)(F)F)cc(C(F)(F)F)c4)c4ccccc34)ccc21 [Compound 27, 5-(4-{[3,5-bis(trifluoromethyl)phenyl]amino}phthalazin-1-yl)-2-benzofuran-1(3H)-one] | 2000 to 30000 |
| COC(=O)c1ccc(-c2nnc(Nc3ccc(Cl)cc3)c3ccccc23)cc1 [Compound 26] | 1000 to 2000 |
| FC(F)(F)c1cc(Nc2nnc(-c3ccc4nn[nH]c4c3)c3ccccc23)cc(C(F)(F)F)c1 [Compound 45, 4-(1H-1,2,3-benzotriazol-6-yl)-N-[3,5-bis(trifluoromethyl)phenyl]phthalazin-1-amine] | 1000 to 2000 |
| COC(=O)c1ccc(-c2nnc(Nc3cc(CN(C)C)cc(C(F)(F)F)c3)c3ccccc23)cc1 [Compound 30, methyl 4-[4-({3-[(dimethylamino)methyl]-5-(trifluoromethyl)phenyl}amino)phthalazin-1-yl]benzoate] | 500 to 1000 |
| COC(=O)c1ccc(-c2nnc(Nc3cccc(C#N)c3)c3ccccc23)cc1 [Compound 54, methyl 4-{4-[(3-cyanophenyl)amino]phthalazin-1-yl}benzoate] | 2000 to 30000 |
| COC(=O)c1ccc(-c2nnc(Nc3cccc(C(F)(F)F)c3)c3cccnc23)cc1 [Compound 13] | 500 to 1000 |
| COC(=O)c1ccc(-c2nnc(Nc3cccc(OC(F)(F)F)c3)c3ccccc23)cc1 [Compound 43, methyl 4-[4-({3-[(trifluoromethyl)oxy]phenyl}amino)phthalazin-1-yl]benzoate] | 150 to 500 |
| COC(=O)c1ccc(-c2nnc(Nc3ccc(F)c(C(F)(F)F)c3)c3ccccc23)cc1 [Compound 53, methyl 4-(4-{[4-fluoro-3-(trifluoromethyl)phenyl]amino}phthalazin-1-yl)benzoate] | 500 to 1000 |
| COC(=O)c1ccc(-c2nnc(Nc3cccc(C(F)(F)F)c3)c3ncccc23)cc1 [Compound 39, methyl 4-(8-{[3-(trifluoromethyl)phenyl]amino}pyrido[2,3-d]pyridazin-5-yl)benzoate] | 2000 to 30000 |
| COC(=O)c1ccc(-c2nnc(Nc3ccc(OC)c(C(F)(F)F)c3)c3ccccc23)cc1 [Compound 34, methyl 4-(4-{[4-(methyloxy)-3-(trifluoromethyl)phenyl]amino}phthalazin-1-yl)benzoate] | 500 to 1000 |
| Cc1n[nH]c2cc(-c3nnc(Nc4cc(C(F)(F)F)cc(C(F)(F)F)c4)c4ccccc34)ccc12 [Compound 56, N-[3,5-bis(trifluoromethyl)phenyl]-4-(3-methyl-1H-indazol-6-yl)phthalazin-1-amine] | 150 to 500 |
| COC(=O)c1ccc(-c2nnc(Nc3cc(C)cc(Br)c3)c3ccccc23)cc1 [Compound 59, methyl 4-{4-[(3-bromo-5-methylphenyl)amino]phthalazin-1-yl}benzoate] | 150 to 500 |
| COC(=O)c1ccc(-c2nnc(Nc3cc(CCN(C)C)cc(C(F)(F)F)c3)c3ccccc23)cc1 [Compound 60, methyl 4-[4-({3-[2-(dimethylamino)ethyl]-5-(trifluoromethyl)phenyl}amino)phthalazin-1-yl]benzoate] | 500 to 1000 |
| COC(=O)c1ccc(-c2nnc(Nc3ccc(Cl)c(C(F)(F)F)c3)c3ccccc23)cc1 [Compound 24, methyl 4-(4-{[4-chloro-3-(trifluoromethyl)phenyl]amino}phthalazin-1-yl)benzoate] | 500 to 1000 |
| Nc1n[nH]c2cc(-c3nnc(Nc4cc(C(F)(F)F)cc(C(F)(F)F)c4)c4ccccc34)ccc12 [Compound 38, 4-(3-amino-1H-indazol-6-yl)-N-[3,5-bis(trifluoromethyl)phenyl]phthalazin-1-amine] | ≤ 150 |
| COC(=O)c1ccc(-c2nnc(Nc3cc(NCCCN(C)C)cc(C(F)(F)F)c3)c3ccccc23)cc1 [Compound 8, methyl 4-(4-{[3-{[3-(dimethylamino)propyl]amino}-5-(trifluoromethyl)phenyl]amino}phthalazin-1-yl)benzoate] | 150 to 500 |
